#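 96-well plates; 48 h exposure; 5 concentrations. Endpoints by linear interpolation between flanking doses. Not reached: highest tested concentration assigned. GI50 = concentration required for 50% inhibition of growth. TGI: total growth inhibition.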
# Legend:
# Test in all cases: NCI tumour cell line growth inhibition, 48 h
# 786-0 renal = system: 786-0 renal
# A498 renal = system: A498 renal
# ACHN renal = system: ACHN renal
# CAKI-1 renal = system: CAKI-1 renal
# CCRF-CEM leukemia = system: CCRF-CEM leukemia
# COLO 205 colon = system: COLO 205 colon
# DU-145 prostate = system: DU-145 prostate
# HCC-2998 colon = system: HCC-2998 colon
# HCT-116 colon = system: HCT-116 colon
# HCT-15 colon = system: HCT-15 colon
# HL-60(TB) leukemia = system: HL-60(TB) leukemia
# HOP-62 NSCLC = system: HOP-62 NSCLC
# HOP-92 NSCLC = system: HOP-92 NSCLC
# HS 578T breast = system: HS 578T breast
# HT29 colon = system: HT29 colon
# IGROV1 ovarian = system: IGROV1 ovarian
# K-562 leukemia = system: K-562 leukemia
# LOX IMVI melanoma = system: LOX IMVI melanoma
# MALME-3M melanoma = system: MALME-3M melanoma
# MCF7 breast = system: MCF7 breast
# MDA-MB-231 breast = system: MDA-MB-231 breast
# MDA-MB-435 = system: MDA-MB-435
# MOLT-4 leukemia = system: MOLT-4 leukemia
# NCI-H226 lung = system: NCI-H226 lung
# NCI-H460 lung = system: NCI-H460 lung
# NCI-H522 lung = system: NCI-H522 lung
# NCI/ADR-RES ovarian = system: NCI/ADR-RES ovarian
# OVCAR-3 ovarian = system: OVCAR-3 ovarian
# OVCAR-5 ovarian = system: OVCAR-5 ovarian
# OVCAR-8 ovarian = system: OVCAR-8 ovarian
# PC-3 prostate = system: PC-3 prostate
# RPMI-8226 leukemia = system: RPMI-8226 leukemia
# RXF 393 renal = system: RXF 393 renal
# SF-268 CNS = system: SF-268 CNS
# SF-295 CNS = system: SF-295 CNS
# SF-539 CNS = system: SF-539 CNS
# SK-MEL-2 melanoma = system: SK-MEL-2 melanoma
# SK-MEL-28 melanoma = system: SK-MEL-28 melanoma
# SK-MEL-5 melanoma = system: SK-MEL-5 melanoma
# SN12C renal = system: SN12C renal
# SNB-19 CNS = system: SNB-19 CNS
# SNB-75 CNS = system: SNB-75 CNS
# SR leukemia = system: SR leukemia
# SW-620 colon = system: SW-620 colon
# T-47D breast = system: T-47D breast
# U251 CNS = system: U251 CNS
# UACC-62 melanoma = system: UACC-62 melanoma
# UO-31 renal = system: UO-31 renal
# BT-549 breast = system: BT-549 breast
# SK-OV-3 ovarian = system: SK-OV-3 ovarian
# TK-10 renal = system: TK-10 renal
structure (smiles),measurement,setting,value
Cc1nc2ccccc2c(/C=C/c2ccc(Cl)cc2)c1C(=O)/C=C/c1ccc(F)cc1,GI50,786-0 renal,1.78 µM
same,TGI,786-0 renal,3.48 µM
same,GI50,A498 renal,1.79 µM
same,TGI,A498 renal,3.22 µM
same,GI50,ACHN renal,1.51 µM
same,TGI,ACHN renal,2.83 µM
same,GI50,CAKI-1 renal,1.11 µM
same,TGI,CAKI-1 renal,2.31 µM
same,GI50,CCRF-CEM leukemia,1.26 µM
same,TGI,CCRF-CEM leukemia,> 100 µM
same,GI50,COLO 205 colon,2.08 µM
same,TGI,COLO 205 colon,4.91 µM
same,GI50,DU-145 prostate,1.68 µM
same,TGI,DU-145 prostate,3.65 µM
same,GI50,HCC-2998 colon,1.53 µM
same,TGI,HCC-2998 colon,3.01 µM
same,GI50,HCT-116 colon,0.531 µM
same,TGI,HCT-116 colon,2.14 µM
same,GI50,HCT-15 colon,1.06 µM
same,TGI,HCT-15 colon,2.91 µM
same,GI50,HL-60(TB) leukemia,1.57 µM
same,TGI,HL-60(TB) leukemia,4.13 µM
same,GI50,HOP-62 NSCLC,1.89 µM
same,TGI,HOP-62 NSCLC,3.71 µM
same,GI50,HOP-92 NSCLC,1.19 µM
same,TGI,HOP-92 NSCLC,2.89 µM
same,GI50,HS 578T breast,2.17 µM
same,TGI,HS 578T breast,5.94 µM
same,GI50,HT29 colon,1.21 µM
same,TGI,HT29 colon,7.54 µM
same,GI50,IGROV1 ovarian,1.15 µM
same,TGI,IGROV1 ovarian,2.69 µM
same,GI50,K-562 leukemia,1.2 µM
same,TGI,K-562 leukemia,> 100 µM
same,GI50,LOX IMVI melanoma,1.32 µM
same,TGI,LOX IMVI melanoma,2.61 µM
same,GI50,MALME-3M melanoma,1.64 µM
same,TGI,MALME-3M melanoma,3.01 µM
same,GI50,MCF7 breast,0.781 µM
same,TGI,MCF7 breast,4.32 µM
same,GI50,MDA-MB-231 breast,1.92 µM
same,TGI,MDA-MB-231 breast,4.77 µM
same,GI50,MDA-MB-435,1.55 µM
same,TGI,MDA-MB-435,3.21 µM
same,GI50,MOLT-4 leukemia,1.19 µM
same,TGI,MOLT-4 leukemia,7.2 µM
same,GI50,NCI-H226 lung,1.68 µM
same,TGI,NCI-H226 lung,3.57 µM
same,GI50,NCI-H460 lung,1.39 µM
same,TGI,NCI-H460 lung,2.85 µM
same,GI50,NCI-H522 lung,1.44 µM
same,TGI,NCI-H522 lung,4.04 µM
same,GI50,NCI/ADR-RES ovarian,1.85 µM
same,TGI,NCI/ADR-RES ovarian,4.11 µM
same,GI50,OVCAR-3 ovarian,1.46 µM
same,TGI,OVCAR-3 ovarian,2.8 µM
same,GI50,OVCAR-5 ovarian,1.63 µM
same,TGI,OVCAR-5 ovarian,3.49 µM
same,GI50,OVCAR-8 ovarian,1.62 µM
same,TGI,OVCAR-8 ovarian,4.16 µM
same,GI50,PC-3 prostate,1.6 µM
same,TGI,PC-3 prostate,3.71 µM
same,GI50,RPMI-8226 leukemia,1.37 µM
same,TGI,RPMI-8226 leukemia,4.48 µM
same,GI50,RXF 393 renal,1.66 µM
same,TGI,RXF 393 renal,3.16 µM
same,GI50,SF-268 CNS,1.52 µM
same,TGI,SF-268 CNS,3.04 µM
same,GI50,SF-295 CNS,1.75 µM
same,TGI,SF-295 CNS,3.22 µM
same,GI50,SF-539 CNS,1.76 µM
same,TGI,SF-539 CNS,3.25 µM
same,GI50,SK-MEL-2 melanoma,1.87 µM
same,TGI,SK-MEL-2 melanoma,3.79 µM
same,GI50,SK-MEL-28 melanoma,1.81 µM
same,TGI,SK-MEL-28 melanoma,3.35 µM
same,GI50,SK-MEL-5 melanoma,1.62 µM
same,TGI,SK-MEL-5 melanoma,2.97 µM
same,GI50,SN12C renal,1.81 µM
same,TGI,SN12C renal,4.07 µM
same,GI50,SNB-19 CNS,1.54 µM
same,TGI,SNB-19 CNS,2.89 µM
same,GI50,SNB-75 CNS,1.16 µM
same,TGI,SNB-75 CNS,2.37 µM
same,GI50,SR leukemia,0.704 µM
same,TGI,SR leukemia,5.47 µM
same,GI50,SW-620 colon,1.42 µM
same,TGI,SW-620 colon,3.43 µM
same,GI50,T-47D breast,1.1 µM
same,TGI,T-47D breast,2.86 µM
same,GI50,U251 CNS,1.44 µM
same,TGI,U251 CNS,2.92 µM
same,GI50,UACC-62 melanoma,1.49 µM
same,TGI,UACC-62 melanoma,2.91 µM
same,GI50,UO-31 renal,1.15 µM
same,TGI,UO-31 renal,2.36 µM
N=C1S/C(=C/c2ccc(-c3ccc4c(c3)C(=O)NC4=O)o2)C(=O)N1c1ccc(Br)cc1,GI50,786-0 renal,3.45 µM
same,TGI,786-0 renal,> 100 µM
same,GI50,BT-549 breast,4.31 µM
same,TGI,BT-549 breast,56 µM
same,GI50,COLO 205 colon,> 100 µM
same,TGI,COLO 205 colon,> 100 µM
same,GI50,HCC-2998 colon,> 100 µM
same,TGI,HCC-2998 colon,> 100 µM
same,GI50,HCT-116 colon,3.65 µM
same,TGI,HCT-116 colon,> 100 µM
same,GI50,HL-60(TB) leukemia,> 100 µM
same,TGI,HL-60(TB) leukemia,> 100 µM
same,GI50,HOP-92 NSCLC,1.81 µM
same,TGI,HOP-92 NSCLC,8.56 µM
same,GI50,HS 578T breast,7.5 µM
same,TGI,HS 578T breast,> 100 µM
same,GI50,IGROV1 ovarian,15.9 µM
same,TGI,IGROV1 ovarian,> 100 µM
same,GI50,MCF7 breast,3.68 µM
same,TGI,MCF7 breast,> 100 µM
same,GI50,MDA-MB-231 breast,4.21 µM
same,TGI,MDA-MB-231 breast,> 100 µM
same,GI50,MOLT-4 leukemia,> 100 µM
same,TGI,MOLT-4 leukemia,> 100 µM
same,GI50,NCI-H522 lung,3.63 µM
same,TGI,NCI-H522 lung,> 100 µM
same,GI50,NCI/ADR-RES ovarian,> 100 µM
same,TGI,NCI/ADR-RES ovarian,> 100 µM
same,GI50,OVCAR-5 ovarian,> 100 µM
same,TGI,OVCAR-5 ovarian,> 100 µM
same,GI50,RPMI-8226 leukemia,4.2 µM
same,TGI,RPMI-8226 leukemia,> 100 µM
same,GI50,SF-268 CNS,6.3 µM
same,TGI,SF-268 CNS,> 100 µM
same,GI50,SF-295 CNS,2.96 µM
same,TGI,SF-295 CNS,8.95 µM
same,GI50,SF-539 CNS,> 100 µM
same,TGI,SF-539 CNS,> 100 µM
same,GI50,SK-MEL-2 melanoma,11.7 µM
same,TGI,SK-MEL-2 melanoma,41.8 µM
same,GI50,SK-MEL-5 melanoma,3.48 µM
same,TGI,SK-MEL-5 melanoma,> 100 µM
same,GI50,SK-OV-3 ovarian,6.19 µM
same,TGI,SK-OV-3 ovarian,> 100 µM
same,GI50,SNB-19 CNS,> 100 µM
same,TGI,SNB-19 CNS,> 100 µM
same,GI50,SNB-75 CNS,2.17 µM
same,TGI,SNB-75 CNS,6.76 µM
same,GI50,T-47D breast,2.92 µM
same,TGI,T-47D breast,> 100 µM
same,GI50,TK-10 renal,3.32 µM
same,TGI,TK-10 renal,> 100 µM
same,GI50,U251 CNS,2.91 µM
same,TGI,U251 CNS,8.23 µM
same,GI50,UO-31 renal,> 100 µM
same,TGI,UO-31 renal,> 100 µM
